Patent US11066393B2, “Indolin-2-one derivatives” (Hoffmann-La Roche Inc., priority 2015, dated 2021)

Experiments:
[1] = target: T1, mouse ENT-1 transporter (Mus musculus, UniProt Q9JIM1); assay: Adenosine transport activity (ENT1, [3H]-adenosine uptake); assay type: cell-based; details: stable cells expressing mouse ENT-1; [2,8-3H]-adenosine 6 nM, 20 min
T1 construct: expressed in transfected cells
T1 sequence (Q9JIM1 1-460): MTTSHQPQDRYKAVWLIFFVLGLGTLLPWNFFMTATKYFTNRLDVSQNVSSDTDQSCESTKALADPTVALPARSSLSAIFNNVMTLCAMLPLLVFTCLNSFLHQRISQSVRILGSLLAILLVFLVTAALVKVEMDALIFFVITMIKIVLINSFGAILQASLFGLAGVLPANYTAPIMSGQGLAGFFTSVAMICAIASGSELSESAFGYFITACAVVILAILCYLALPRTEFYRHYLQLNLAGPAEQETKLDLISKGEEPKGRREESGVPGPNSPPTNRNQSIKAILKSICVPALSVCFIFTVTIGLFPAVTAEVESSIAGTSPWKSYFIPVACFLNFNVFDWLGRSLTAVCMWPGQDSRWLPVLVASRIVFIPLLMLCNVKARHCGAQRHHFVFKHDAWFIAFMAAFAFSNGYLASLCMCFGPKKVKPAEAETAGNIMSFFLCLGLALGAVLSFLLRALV
Procedure: To measure adenosine transport activity of ENT-1 mammalian cells, stable cells expressing the mouse ENT-1 transporter were plated on day 1 in 96-well culture plates at the density of 60,000 cells/well, in complete DMEM/F12 medium supplemented with glutamax, 10% FBS and 10 μg/ml puromycin. On day 2, the medium was aspirated and the cells were washed twice with uptake buffer (10 mM Hepes-Tris, pH 7.4 containing 150 mM NaCl, 1 mM CaCl2, 2.5 mM KCl, 2.5 mM MgSO4, 10 mM D-glucose) (UB). For inhibition experiments, cells were then incubated at RT with various concentrations of compounds with 1% DMSO final. Non-specific uptake was defined in the presence of 10 μM S-(4-Nitrobenzyl)-6-thioinosine (NBTI, Sigma Cat #N2255).
A solution containing [2,8-^3H]-adenosine 6 nM (40 Ci/mmol, American Radiolabeled chemicals Inc, Cat #ART 0287A) was then immediately added to the wells. The plates were then incubated for 20 min with gentle shaking and the reaction was stopped by aspiration of the mixture and washing (three times) with ice-cold UB. The cells were lysed by the addition of scintillation liquid, shaken 3 hours and the radioactivity in the cells was estimated using a microplates scintillation counter (TopCount NXT, Packard).

[2] = system: L-687,414-induced hyperlocomotion; assay: Reduction of L-687,414-induced hyperlocomotion; assay type: in vivo, mouse; details: mice, dose 30 mg/kg ip, 15 min before s.c. 50 mg/kg L-687,414
Excerpt: The authors described that hyperlocomotion induced by L-687,414 was inhibited by a series of known antipsychotic drugs. […] These findings predict antipsychotic activity for the present compounds, making them useful for the treatment of positive (psychosis) and negative symptoms of schizophrenia, substance abuse, alcohol and drug addiction, obsessive-compulsive disorders, cognitive impairment, bipolar disorders, mood disorders, major depression, resistant depression, anxiety disorders, Alzheimer's disease, autism, Parkinson's disease, chronic pain, borderline personality disorder, sleep disturbances, chronic fatigue syndrome, stiffness, antiinflammatory effects in arthritis and balance problems, epilepsy and neurodevelopmental disorders with co-morbid epilepsy.
The described compounds of formula I reduce L-687,414-induced hyperlocomotion. This was assessed by using a computerized Digiscan 16 Animal Activity Monitoring System (Omnitech Electronics, Columbus, Ohio) to quantify locomotor activity. Animals were kept under a 12 h light/dark cycle and experiments were performed during the light period. Each activity monitoring chamber consisted of a Plexiglas box (41×41×28 cm; W×L×H) with sawdust bedding on the floor surrounded by invisible horizontal and vertical infrared sensor beams. The test boxes were divided by a Plexiglas cross providing each mouse with 20×20 cm of moving space. Cages were connected to a Digiscan Analyzer linked to a computer that constantly collected the beam status information. Records of photocell beam interruptions for individual animals were taken every 5 min over the duration of the experimental session and the sum of the first 6 periods was used as the final parameter. At least 8 mice were used in each treatment group. Compounds were administered i.p. 15 min before a s.c. injection of 50 mg/kg of L-687,414. Mice were then transferred from their home cage to the recording chambers for a 15-min habituation phase allowing free exploration of the new environment. Horizontal activity was then recorded for a 30-min time period. The % inhibition of L-687,414-induced hyperlocomotion was calculated according to the equation: ((Veh+L-687,414 horizontal activity−drug+L-687,414 horizontal activity)/Veh+L-687,414 horizontal activity)×100
ID50 values, defined as doses of each compound producing 50% inhibition of L-687,414-induced hyperlocomotion, were calculated by linear regression analysis of a dose-response data using an Excel-based computer-fitting program. As data was not presupposed to be normally distributed, groups treated with test compounds were statistically compared with the control (vehicle-treated) group using one-tailed Mann Whitney U tests. In statistics, the Mann-Whitney U test (also called the Mann-Whitney-Wilcoxon (MWW) or Wilcoxon rank-sum test) is a non-parametric statistical hypothesis test for assessing whether one of two samples of independent observations tends to have larger values than the other. It is one of the most well-known non-parametric significance tests. […] P values given in table 1 are one-tailed since only decreases in locomotion were expected and tested for (Mann, H. B., Whitney, D. R. (1947), “On a Test of Whether one of Two Random Variables is Stochastically Larger than the Other”, Annals of Mathematical Statistics, 18 (1), 50-60).

| SMILES | IC50 [1] | Inhibition, ip [%] of L-687,414-induced hyperlocomotion [2] |
| --- | --- | --- |
| COCCNC(=O)c1cncc(N2C(=O)C(C)(C)c3ccc(-c4cnc(C)nc4)cc32)n1 [Example 7, 6-(3,3-Dimethyl-6-(2-methylpyrimidin-5-yl)-2-oxoindolin-1-yl)-N-(2-methoxyethyl)pyrazine-2-carboxamide] | 0.0884 µM | 88.1% |
| Cc1ncc(-c2ccc3c(c2)N(c2cnc(C(=O)N(C)C)cn2)C(=O)C3(C)C)cn1 [Example 11, 5-[3,3-Dimethyl-6-(2-methylpyrimidin-5-yl)-2-oxoindol-1-yl]-dimethylpyrazine-2-carboxamide] | 0.123 µM | 98.4% |
| CNC(=O)c1ccnc(N2C(=O)C(C)(C)c3ccc(-c4cnc(C)nc4)cc32)n1 [Example 16, 2-(3,3-Dimethyl-6-(2-methylpyrimidin-5-yl)-2-oxoindolin-1-yl)-N-methylpyrimidine-4-carboxamide] | 0.241 µM | 94.6% |
| Cc1ncc(-c2ccc3c(c2)N(c2ccc(C(=O)N(C)C)cn2)C(=O)C3(C)C)cn1 [Example 29, 6-(3,3-Dimethyl-6-(2-methylpyrimidin-5-yl)-2-oxoindolin-1-yl)-N,N-dimethylnicotinamide] | 0.585 µM | 93% |

Now those with a lower IC50 [1], led by results:

| IC50 [1] | SMILES | Inhibition, ip [%] of L-687,414-induced hyperlocomotion [2] |
| --- | --- | --- |
| 0.0458 µM | Cc1ncc(-c2ccc3c(c2)N(c2cccc(C(=O)NC4CC4)n2)C(=O)C3(C)C)cn1 [Example 24, N-Cyclopropyl-6-(3,3-dimethyl-6-(2-methylpyrimidin-5-yl)-2-oxoindolin-1-yl)picolinamide] | 99.1% |
| 0.028 µM | CNC(=O)c1cncc(N2C(=O)C(C)(C)c3ccc(-c4cnc(C)nc4)cc32)n1 [Example 2, 6-(3,3-Dimethyl-6-(2-methylpyrimidin-5-yl)-2-oxoindolin-1-yl)-N-methylpyrazine-2-carboxamide] | 97.5% |
| 0.0085 µM | CNC(=O)c1cccc(N2C(=O)C(C)(C)c3ccc(-c4cnc(C)nc4)cc32)n1 [Example 22, 6-(3,3-Dimethyl-6-(2-methylpyrimidin-5-yl)-2-oxoindolin-1-yl)-N-methylpicolinamide] | 95.6% |
